The values below are quoted from earlier work in US6486182B1, “Mutual prodrugs of amlodipine and atorvastatin” (Pfizer Inc, priority 1999, dated 2002).

One data set has as its system calcium channel. Conditions: see PCT/EP94/02697.
For data set [1], the system named is smooth muscle cell migration. The conditions noted are these: see PCT/EP95/00847.

On to `CCOC(=O)C1=C(COCCN)NC(C)=C(C(=O)OC)C1c1ccccc1Cl` (single isomer, unassigned) [R(+) isomer, Amlodipine], for which the “calcium channel blocking activity” value with calcium channel is listed as “little or no calcium channel blocking activity”. The “inhibition of smooth muscle cell migration” value in data set [1] is recorded as “potent inhibitor”.
